Counter-ions that a name gives are not always drawn. Like-named read-outs stand apart in the source and are kept apart here.
How the values were obtained:
hPAD4 = hPAD4 (Homo sapiens, UniProt Q9UM07); test: hPAD4 RFMS (RapidFire mass spectrometry) PAD4 inhibition assay; type: biochemical; conditions: hPAD4 enzyme, RFMS readout;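 on hPAD4 RFMS pIC50: grade E means pIC50 at most 4 and F means pIC50 4.0 to 5.0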
Experimental: (§1) Compounds of the present invention were assayed as inhibitors of PAD4 using the assay protocol described below.
(§2) Compound stock solutions were stored at RT. […] Final assay conditions were as follows:
(§3) Total incubation time: 65 mins at 37° C.
(§4) Stop solution: 40 μl 5% TCA in ACN
(§5) The compound numbers correspond to the compound numbers in Table 1. […] The term pIC50=−log(IC50). […] “NA” stands for “not assayed.”

mPAD4 = mPAD4 (Mus musculus, UniProt Q9Z183); test: mPAD4 RFMS PAD4 inhibition assay; type: biochemical; conditions: mPAD4, RFMS readout;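 on mPAD4 RFMS pIC50: grade E means pIC50 at most 4 and F means pIC50 4.0 to 5.0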
mPAD4, sequence (Q9Z183 whole entry): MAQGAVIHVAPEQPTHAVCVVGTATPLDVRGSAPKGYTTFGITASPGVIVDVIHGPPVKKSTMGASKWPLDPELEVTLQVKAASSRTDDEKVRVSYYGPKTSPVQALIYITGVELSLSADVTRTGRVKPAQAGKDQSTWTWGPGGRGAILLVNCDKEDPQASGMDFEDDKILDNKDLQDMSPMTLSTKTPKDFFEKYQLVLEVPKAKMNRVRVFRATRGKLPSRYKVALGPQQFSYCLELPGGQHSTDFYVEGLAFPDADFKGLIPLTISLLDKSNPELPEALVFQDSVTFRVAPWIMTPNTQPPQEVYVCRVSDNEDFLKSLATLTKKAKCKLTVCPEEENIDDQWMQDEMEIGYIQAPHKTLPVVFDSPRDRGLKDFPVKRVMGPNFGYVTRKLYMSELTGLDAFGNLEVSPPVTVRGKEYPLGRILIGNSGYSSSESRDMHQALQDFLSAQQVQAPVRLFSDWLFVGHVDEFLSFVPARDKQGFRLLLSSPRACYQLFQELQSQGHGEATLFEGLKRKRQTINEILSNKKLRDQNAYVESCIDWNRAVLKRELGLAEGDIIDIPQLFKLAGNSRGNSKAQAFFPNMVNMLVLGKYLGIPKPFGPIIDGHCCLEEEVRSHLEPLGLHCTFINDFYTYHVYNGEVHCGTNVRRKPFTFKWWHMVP
Experimental: as §1, §2, §3, §4, §5

[1] = pIC50=−log(IC50), read-out: hPAD4 RFMS pIC50 (converted)
[2] = pIC50=−log(IC50), read-out: mPAD4 RFMS pIC50 (converted)

hPAD4, sequence (Q9UM07 whole entry): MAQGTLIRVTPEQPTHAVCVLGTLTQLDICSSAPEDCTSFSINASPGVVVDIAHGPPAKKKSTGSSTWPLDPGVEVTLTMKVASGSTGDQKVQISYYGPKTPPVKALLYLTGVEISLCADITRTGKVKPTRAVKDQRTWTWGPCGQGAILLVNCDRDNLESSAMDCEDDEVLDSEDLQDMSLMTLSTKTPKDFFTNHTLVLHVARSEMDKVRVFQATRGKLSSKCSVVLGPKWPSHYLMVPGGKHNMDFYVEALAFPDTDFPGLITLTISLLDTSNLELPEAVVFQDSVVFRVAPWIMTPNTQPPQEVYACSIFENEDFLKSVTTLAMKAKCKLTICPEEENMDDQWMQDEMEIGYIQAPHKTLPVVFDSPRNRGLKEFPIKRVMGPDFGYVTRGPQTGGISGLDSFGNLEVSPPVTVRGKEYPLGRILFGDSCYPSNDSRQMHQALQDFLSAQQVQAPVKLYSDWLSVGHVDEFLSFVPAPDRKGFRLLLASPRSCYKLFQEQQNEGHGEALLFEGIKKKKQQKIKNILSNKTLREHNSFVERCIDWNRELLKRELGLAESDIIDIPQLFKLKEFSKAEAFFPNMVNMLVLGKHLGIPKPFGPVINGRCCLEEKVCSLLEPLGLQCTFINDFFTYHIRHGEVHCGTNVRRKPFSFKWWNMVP

Row | SMILES | IC50 (hPAD4; [1]) [µM] | IC50 (hPAD4; read-out: hPAD4 RFMS IC50) [µM] | IC50 (mPAD4; [2]) [µM] | IC50 (mPAD4; read-out: mPAD4 RFMS IC50) [µM] | hPAD4 RFMS pIC50 (hPAD4; pIC50=−log(IC50)) | mPAD4 RFMS pIC50 (mPAD4; pIC50=−log(IC50))
1 | COc1cc(C(=O)N2CC3COCC3(CN)C2)cc2nc(-c3cc4cccnc4n3CC3CC3)n(C)c12 (racemic) [Compound I-96] | 10 to 100 | > 10 | 10 to 100 | > 10 |  | 
2 | COc1cc(C(=O)N2CCC3(CNCCC3(F)F)C2)cc2nc(-c3cc4cccnc4n3CC3CC3)n(C)c12 (racemic) [Compound I-97] | 10 to 100 | > 10 | 10 to 100 | > 10 |  | 
3 | COc1cc(C(=O)N2CC3CC(N)C2C3)cc2nc(-c3cc4cccnc4n3CC3CC3)n(C)c12 (racemic) [Compound I-99] | > 100 | > 10 | > 100 | > 10 |  | 
4 | CCn1c(-c2nc3cc(C(=O)N4CC5CCC4C5N)cc(OC)c3n2C)cc2ccc(OC)nc21 (racemic) [Compound I-136] | < 1 | < 1 | < 1 | < 1 |  | 
5 | CCn1c(-c2nc3cc(C(=O)N4C[C@H]5CC[C@@H]4[C@@H]5N)cc(OC)c3n2C)cc2cccnc21 (racemic) [Compound I-143] | < 1 | < 1 | < 1 | < 1 |  | 
6 | COc1cc(C(=O)N2C[C@H](N)CC[C@H]2CO)cc2nc(-c3cc4cccnc4n3CC3CC3)n(C)c12 (racemic) [Compound I-220, Rac-[(2R,5S)-5-amino-1-{2-[1-(cyclopropylmethyl)-1H-pyrrolo[2,3-b]pyridin-2-yl]-7-methoxy-1-methyl-1H-1,3-benzodiazole-5-carbonyl}piperidin-2-yl]methanol] |  | > 10 |  | > 10 | E/F | E/F
7 | COc1cc(C(=O)N2C[C@H](N)CC[C@@H]2CO)cc2nc(-c3cc4cccnc4n3CC3CC3)n(C)c12 (racemic) [Compound I-221, rac-[(2R,5R)-5-amino-1-{2-[1-(cyclopropylmethyl)-1H-pyrrolo[2,3-b]pyridin-2-yl]-7-methoxy-1-methyl-1H-1,3-benzodiazole-5-carbonyl}piperidin-2-yl]methanol] | 10 to 100 | > 10 | 1 to 10 | 1 to 5 |  | 
8 | Cn1c(-c2cc3cccnc3n2CC2CC2)nc2cc(C(=O)N3CC[C@H]4CCN[C@H]4C3)cc(OC(F)F)c21 (single isomer, unassigned) [Compound I-24, hydrochloride] | 10 to 100 | > 10 | 10 to 100 | > 10 |  | 
9 | Cn1c(-c2cc3cccnc3n2CC2CC2)nc2cc(C(=O)N3CC[C@H]4CCN[C@H]4C3)cc(OC(F)F)c21 (single isomer, unassigned) [Compound I-25, hydrochloride] | 1 to 10 | 1 to 5 | 1 to 10 | 1 to 5 |  | 
10 | CO[C@@H]1CCN(C(=O)c2ccc3c(c2)nc(-c2cc4cccnc4n2CC2CC2)n3C)C[C@@H]1N (single isomer, unassigned) [Compound I-64] | 1 to 10 | 1 to 5 | 1 to 10 | 5 to 10 |  | 
11 | CO[C@H]1CCN(C(=O)c2ccc3c(c2)nc(-c2cc4cccnc4n2CC2CC2)n3C)C[C@H]1N (single isomer, unassigned) [Compound I-65] | 10 to 100 | > 10 | 10 to 100 | > 10 |  | 
12 | COc1cc(C(=O)N2C[C@H](N)CC[C@H]2CO)cc2nc(-c3cc4cccnc4n3CC3CC3)n(C)c12 (single isomer, unassigned) [Compound I-226] |  | > 10 |  | > 10 | E/F | E/F
13 | COc1cc(C(=O)N2C[C@@H](N)CC[C@@H]2CO)cc2nc(-c3cc4cccnc4n3CC3CC3)n(C)c12 (single isomer, unassigned) [Compound I-227] | 10 to 100 | > 10 |  | > 10 |  | E/F
14 | COc1cc(C(=O)N2C[C@H](N)CC[C@@H]2CO)cc2nc(-c3cc4cccnc4n3CC3CC3)n(C)c12 (single isomer, unassigned) [Compound I-228] | 1 to 10 | 5 to 10 | 1 to 10 | 1 to 5 |  | 
15 | COc1cc(C(=O)N2C[C@@H](N)CC[C@H]2CO)cc2nc(-c3cc4cccnc4n3CC3CC3)n(C)c12 (single isomer, unassigned) [Compound I-229] | 10 to 100 | > 10 | 1 to 10 | 5 to 10 |  | 
16 | Cn1c(-c2cc3cncnc3n2CC2CC2)nc2cc(C(=O)N3CCC4CCNC4C3)ccc21 (centres unmarked) [Compound I-9, 2-[7-(Cyclopropylmethyl)-7H-pyrrolo[2,3-d]pyrimidin-6-yl]-1-methyl-5-{octahydro-1H-pyrrolo[2,3-c]pyridine-6-carbonyl}-1H-1,3-benzodiazole] | 1 to 10 | 5 to 10 | 10 to 100 | > 10 |  | 
17 | Cn1c(-c2cc3cccnc3n2CC2CC2)nc2cc(C(=O)N3CC[C@H]4CCN[C@H]4C3)ccc21 [Compound I-10] | 1 to 10 | 1 to 5 | 1 to 10 | 5 to 10 |  | 
18 | COc1cc(C(=O)N2CC[C@@H]3CCN[C@@H]3C2)cc2nc(-c3cc4cccnc4n3CC3CC3)n(C)c12 [Compound I-11] | < 1 | < 1 | < 1 | < 1 |  | 
19 | COc1cc(C(=O)N2CC[C@H]3CCN[C@H]3C2)cc2nc(-c3cc4cncnc4n3CC3CC3)n(C)c12 [Compound I-12, 5-[(3aR,7aR)-octahydro-1H-pyrrolo[2,3-c]pyridine-6-carbonyl]-2-[7-(cyclopropylmethyl)-7H-pyrrolo[2,3-d]pyrimidin-6-yl]-7-methoxy-1-methyl-1H-1,3-benzodiazole] | 1 to 10 | 1 to 5 | 10 to 100 | > 10 |  | 
20 | COc1cc(C(=O)N2CC[C@H]3CCN[C@H]3C2)cc2nc(-c3cc4cccnc4n3CC3CC3)n(C)c12 [Compound I-17] | 10 to 100 | > 10 | 10 to 100 | > 10 |  | 
21 | Cn1c(-c2cc3cccnc3n2CC2CC2)nc2cc(C(=O)N3CC[C@@H]4CCN[C@@H]4C3)ccc21 [Compound I-18] | 10 to 100 | > 10 | 10 to 100 | > 10 |  | 
22 | CCn1c(-c2cc3cccnc3n2CC2CC2)nc2cc(C(=O)N3CC[C@H]4CCN[C@H]4C3)cc(OC)c21 [Compound I-22] | 10 to 100 | > 10 | 10 to 100 | > 10 |  | 
23 | CCn1c(-c2cc3cccnc3n2CC2CC2)nc2cc(C(=O)N3CC[C@@H]4CCN[C@@H]4C3)cc(OC)c21 [Compound I-23] | < 1 | < 1 | 1 to 10 | 1 to 5 |  | 
24 | COc1cc(C(=O)N2CC3(CCCNC3)C2)cc2nc(-c3cc4cccnc4n3CC3CC3)n(C)c12 [Compound I-27] | 1 to 10 | 1 to 5 | 1 to 10 | 1 to 5 |  | 
25 | COc1cc(C(=O)N2CC[C@H]3OCCN[C@H]3C2)cc2nc(-c3cc4cccnc4n3CC3CC3)n(C)c12 [Compound I-28] | < 1 | < 1 | < 1 | < 1 |  | 
26 | COc1cc(C(=O)N2CC[C@@H]3OCCN[C@@H]3C2)cc2nc(-c3cc4cccnc4n3CC3CC3)n(C)c12 [Compound I-29] | 10 to 100 | 5 to 10 | 1 to 10 | 5 to 10 |  | 

From patent publication US9963448B2, “Bicyclic inhibitors of PAD4” (Padlock Therapeutics, Inc., priority 2015, dated 2018)
